Reference: patent US10344330B2, “Glatiramer acetate response biomarker mRNA potency assay” (Mylan Inc., priority 2013, dated 2019)
Where “and” joins values, the source holds several entries; their conditions need not be identical. Identical values can stand only once. Like-named read-outs stand apart in the source and are kept apart here.

Columns and labels:
[1] = system: mIL-10 mRNA in primary LN cells; assay: mIL-10 mRNA by real-time PCR in stimulated LN cells of immunized (SJL/J×BALB/C)F1 mice (Example I); assay type: cell-based, mouse
Protocol: Animals were immunized on Day 0.
Each mouse received a total injection volume of […] (250 μg GA). Animals were immunized on Day 0. […] Lymph nodes from immunized mice were removed and isolated.
Expression of cytokine mRNA was quantitatively analyzed 4 and 6 hours after using a Real-Time PCR system (7500, Applied Biosystems).

[2] = system: IFN-γ secreted by LN cells; assay: IFN-γ secretion by GA-stimulated LN cells, MSD ELISA, 21 and 45 hr (Example II); assay type: cell-based, mouse
[3] = system: mouse IL-5 mRNA in primary LN cells; assay: Validation: mouse IL-5 mRNA by real-time PCR in LN cells of GA-immunized SJL/J mice (Example IV); assay type: cell-based; conditions: for IL-5 mRNA Fold Change: normalized to GAPDH; for induction of IL-5 mRNA: 20 μg/mL GA, 6 hours
Protocol: Three experiments were conducted using one batch of GA (Mylan GMA). The primary LN cells were stimulated by incubation with 6 concentrations (0.3 to 20 μg/mL) of the GA for 6 hours at 37° C. Total RNA was isolated from LN cells stimulated with GA or controls. cDNA was synthesized from the RNA and the mRNA levels of seven mouse cytokines, IL-2, IL-4, IL-5, IL-10, IL-13, interferon (IFN)-γ and tumor necrosis factor (TNF)-α, were quantitatively measured by a real-time PCR method.
Female SJL/J mice at 8-9 weeks of age were immunized by injection into four footpads using a 1 mL syringe with a 27-G, ½-inch needle. Each mouse received a total injection volume of 0.1 mL of GMA emulsified in CFA (about 10 μL into each of the front footpads and 40 μL into each of the hind footpads). Animals were immunized on Day 0. After injection, animals were placed back in their cages and housed ≤6 animals per cage.
Immunized animals were sacrificed by cervical dislocation on Day 10 following immunization. […] After centrifugation at about 200×g for 10 minutes at 4° C., the cell pellet was re-suspended in 40 mL of DCCM-1 medium for cell counting. A Trypan blue exclusion method was used to determine the cell density of viable cells in the suspension. After cell counting, the LN cells were suspended in enriched DCCM-1 medium at density of 7.5×10^6 cells/mL. LN cells (0.12 mL) were plated into each well of 96-well tissue culture plates.
Dilutions of GA (Mylan GMA) were prepared using enriched DCCM-1 medium as the diluent. GA dilutions (0.12 mL) were added in the assigned wells of 96-well tissue culture plates. The same volume of LN cells (0.12 mL) isolated from immunized animals was added to the assigned wells. A positive control and a negative control were always performed in the same assay by treating LN cells with 2.5 μg/mL ConA and 10 μg/mL MBP, respectively. The LN cells with mock stimulation protocols (enriched DCCM-1 medium) were used to monitor the background mRNA level of a cytokine. The plates were incubated at 37° C. in a humidified 5% CO2 incubator for 6 hr.
At the end of incubation time, culture medium from stimulated cells was removed by aspiration and the cells were lysed using Qiagen or Promega lysis buffer. The lysate was transferred to an RNeasy Mini column (Qiagen) or wells of the SV 96 Binding Plate (Promega) for RNA isolation and cDNA synthesis. All tested samples were run in triplicate.
The SV 96 Total RNA Isolation System (Promega; Cat. No. Z3505) was used for total RNA isolation. Assay procedures were carried out according to each manufacturer's protocol. RNA samples were stored at −70° C. until use. […] The assay procedure was carried out according to the manufacturer's protocol.
The plate was centrifuged at 2000 rpm for 2 minutes at 4° C. to spin down the contents and eliminate air bubbles. Samples were prepared and run in a 96-well plate using a Life Technologies Real-Time PCR system (previously Applied Biosystems; Model No. 7500) according to the manufacturer's recommendation. The mix for the reference gene was prepared in the same way using the reference gene primer.
A relative quantitation method was used to analyze changes in mIL-2, mIL-4, mIL-5, mIL-10, mIL-13, mIFN-γ and TNF-α expression in GA treated samples relative to the untreated control (Enriched DCCM-1 treated) samples using the following program:
Levels of mouse cytokine amplicons were normalized to an internal probe level (GAPDH) from the same samples. The following equations were used to calculate the relative increase in response to GA stimulation compared to the control sample (Enriched DCCM1 sample): […]

[4] = Group 1B (GA + CFA), 4 hours post-stimulation, GA 10, MBP 10, ConA 2.5 μg/mL, reference GAPDH
[5] = Group 1B (GA + CFA), 6 hours post-stimulation, GA 10, MBP 10, ConA 2.5 μg/mL, reference GAPDH
[6] = Group 2B (Mannitol + CFA), 4 hours post-stimulation, GA 10, MBP 10, ConA 2.5 μg/mL, reference GAPDH
[7] = Group 2B (Mannitol + CFA), 6 hours post-stimulation, GA 10, MBP 10, ConA 2.5 μg/mL, reference GAPDH
[8] = BALB/cByJ, immunized GA Intraplantar, 21 hr
[9] = BALB/cByJ, immunized GA Intraplantar, 45 hr
[10] = BALB/cByJ, immunized GA Lower Limb, 21 hr
[11] = BALB/cByJ, immunized GA Lower Limb, 45 hr
[12] = BALB/cByJ, immunized Mannitol Intraplantar, 21 hr
[13] = BALB/cByJ, immunized Mannitol Intraplantar, 45 hr
[14] = C57BL10J, immunized GA Intraplantar, 21 hr
[15] = C57BL10J, immunized GA Intraplantar, 45 hr
[16] = C57BL10J, immunized GA Lower Limb, 21 hr
[17] = C57BL10J, immunized GA Lower Limb, 45 hr
[18] = C57BL10J, immunized Mannitol Intraplantar, 21 hr
[19] = C57BL10J, immunized Mannitol Intraplantar, 45 hr
[20] = CD-1, immunized GA Intraplantar, 21 hr
[21] = CD-1, immunized GA Intraplantar, 45 hr
[22] = CD-1, immunized GA Lower Limb, 21 hr
[23] = CD-1, immunized GA Lower Limb, 45 hr
[24] = CD-1, immunized Mannitol Intraplantar, 21 hr
[25] = CD-1, immunized Mannitol Intraplantar, 45 hr

Molecule	mIL-10 mRNA [1, 4]	mIL-10 mRNA [1, 5]	mIL-10 mRNA [1, 6]	mIL-10 mRNA [1, 7]	IFN-γ secretion response ratio (treated cell medium to control DCCM1 medium) [2, 8]	IFN-γ secretion response ratio (treated cell medium to control DCCM1 medium) [2, 9]	IFN-γ secretion response ratio (treated cell medium to control DCCM1 medium) [2, 10]	IFN-γ secretion response ratio (treated cell medium to control DCCM1 medium) [2, 11]	IFN-γ secretion response ratio (treated cell medium to control DCCM1 medium) [2, 12]	IFN-γ secretion response ratio (treated cell medium to control DCCM1 medium) [2, 13]	IFN-γ secretion response ratio (treated cell medium to control DCCM1 medium) [2, 14]	IFN-γ secretion response ratio (treated cell medium to control DCCM1 medium) [2, 15]	IFN-γ secretion response ratio (treated cell medium to control DCCM1 medium) [2, 16]	IFN-γ secretion response ratio (treated cell medium to control DCCM1 medium) [2, 17]	IFN-γ secretion response ratio (treated cell medium to control DCCM1 medium) [2, 18]	IFN-γ secretion response ratio (treated cell medium to control DCCM1 medium) [2, 19]	IFN-γ secretion response ratio (treated cell medium to control DCCM1 medium) [2, 20]	IFN-γ secretion response ratio (treated cell medium to control DCCM1 medium) [2, 21]	IFN-γ secretion response ratio (treated cell medium to control DCCM1 medium) [2, 22]	IFN-γ secretion response ratio (treated cell medium to control DCCM1 medium) [2, 23]	further results
Concanavalin A [ConA, reference compound]	2.3 fold change vs control	1.2 fold change vs control	1.6 fold change vs control	3.1 fold change vs control	9.70	11.40	6.24	7.33	4.40	3.48	11.55	53.10	5.07	5.15	4.05	5.90	10.14	5.47	1.90	1.89	IFN-γ secretion response ratio (treated cell medium to control DCCM1 medium) [2, 24]: 9.35; IFN-γ secretion response ratio (treated cell medium to control DCCM1 medium) [2, 25]: 9.68; IL-5 mRNA Fold Change ([3]; Experiment 1, 2.5 μg/mL): 22.4 fold; IL-5 mRNA Fold Change ([3]; Experiment 2, 2.5 μg/mL): 11.3 fold; IL-5 mRNA Fold Change ([3]; Experiment 3, 2.5 μg/mL): 31.0 fold
L-glutamic acid polymer with L-alanine, L-lysine and L-tyrosine, acetate (salt) [GA]	–	–	–	–	–	–	–	–	–	–	–	–	–	–	–	–	–	–	–	–	mIL-10 mRNA [1]: 1.7 fold change vs control and 1.4 fold change vs control and 1.2 fold change vs control and 0.9 fold change vs control; IFN-γ secretion, dose response to GA (in words) ([2]; LN cells from each of the three mouse strains): dose-dependent manner; induction of IL-5 mRNA ([3]; SJL/J, Exp 1): 5.2 fold; induction of IL-5 mRNA ([3]; SJL/J, Exp 2): 5.3 fold; induction of IL-5 mRNA ([3]; SJL/J, Exp 3): 15.2 fold; induction of IL-5 mRNA (in words) ([3]; SJL/J, different concentrations of GA vs unstimulated LN cells): moderate induction
MBP: myelin basic protein, a negative control (protein, UniProt P02686 1-304, looked up) Myelin basic protein: MGNHAGKRELNAEKASTNSETNRGESEKKRNLGELSRTTSEDNEVFGEADANQNNGTSSQDTAVTDSKRTADPKNAWQDAHPADPGSRPHLIRLFSRDAPGREDNTFKDRPSESDELQTIQEDSAATSESLDVMASQKRPSQRHGSKYLATASTMDHARHGFLPRHRDTGILDSIGRFFGGDRGAPKRGSGKDSHHPARTAHYGSLPQKSHGRTQDENPVVHFFKNIVTPRTPPPSQGKGRGLSLSRFSWGAEGQRPGFGYGGRASDYKSAHKGFKGVDAQGTLSKIFKLGGRDSRSGSPMARR	1.0 fold change vs control	0.6 fold change vs control	1.0 fold change vs control	0.5 fold change vs control	0.87	0.83	0.80	0.92	1.17	0.92	1.03	1.07	1.60	1.80	2.02	1.41	1.06	0.89	0.90	2.11	IFN-γ secretion response ratio (treated cell medium to control DCCM1 medium) [2, 24]: 1.57; IFN-γ secretion response ratio (treated cell medium to control DCCM1 medium) [2, 25]: 7.22; IL-5 mRNA Fold Change ([3]; Experiment 1, 10 μg/mL): 0.8 fold; IL-5 mRNA Fold Change ([3]; Experiment 2, 10 μg/mL): 0.8 fold; IL-5 mRNA Fold Change ([3]; Experiment 3, 10 μg/mL): 2.6 fold
